Experimental data taken from US20130245081A1, “Compositions and Methods for Treating Amyotrophic Lateral Sclerosis” (priority 2009, published 2013).
“And” between values parts separate entries of the source, which are not always exact repeats. Equal entries are not always repeated. Where two headings read alike, the source gives them in different places.

Test system: patients with ALS
[1] = 50 mg, No Riluzole Use, through Week 28
[2] = 50 mg, Riluzole Use, through Week 28
[3] = 50 mg, double-blind treatment period
[4] = 50 mg, through the end of the study
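Note: adverse event data gathered at every clinic visit and phone contact, after first study drug dose, in a blinded trial, counts of affected subjects.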

SMILES: CCCN[C@@H]1CCc2nc(N)sc2C1 [dexpramipexole, (6R)-2-amino-4,5,6,7-tetrahydro-6-(propylamino)benzothiazole]
- subjects with increase from baseline in QTcF >30 msec (50 mg): Four
- subjects with decrease in weight >7% from baseline (50 mg and 300 mg groups together, double-blind period): 30 subjects
- AE: Anxiety [1]: 1 (4%) N (%)
- AE: Constipation [1]: 4 (17%) N (%)
- AE: Depression [1]: 4 (17%) N (%)
- AE: Dry mouth [1]: 0 N (%)
- AE: Dysarthria [1]: 1 (4%) N (%)
- AE: Dyspnoea [1]: 3 (13%) N (%)
- AE: Fall [1]: 6 (26%) N (%)
- AE: Headache [1]: 1 (4%) N (%)
- AE: Muscular weakness [1]: 7 (30%) N (%)
- AE: Nausea [1]: 2 (9%) N (%)
- AE: Oedema peripheral [1]: 4 (17%) N (%)
- AE: Pharyngolaryngeal pain [1]: 1 (4%) N (%)
- AE: Sinusitis [1]: 1 (4%) N (%)
- AE: Upper respiratory tract infection [1]: 2 (9%) N (%)
- AE: Urinary tract infection [1]: 1 (4%) N (%)
- AE: Anxiety [2]: 1 (4%) N (%)
- AE: Constipation [2]: 4 (16%) N (%)
- AE: Depression [2]: 2 (8%) N (%)
- AE: Dry mouth [2]: 1 (4%) N (%)
- AE: Dysarthria [2]: 3 (12%) N (%)
- AE: Dyspnoea [2]: 2 (8%) N (%)
- AE: Fall [2]: 5 (20%) N (%)
- AE: Headache [2]: 2 (8%) N (%)
- AE: Muscular weakness [2]: 6 (24%) N (%)
- AE: Nausea [2]: 2 (8%) N (%)
- AE: Oedema peripheral [2]: 3 (12%) N (%)
- AE: Pharyngolaryngeal pain [2]: 3 (12%) N (%)
- AE: Sinusitis [2]: 1 (4%) N (%)
- AE: Upper respiratory tract infection [2]: 3 (12%) N (%)
- AE: Urinary tract infection [2]: 2 (8%) N (%)
- incidence of ECGs with QTcB increased >30 msec from baseline (50 mg, any post-baseline visit): 17%
- subjects with QTcF interval >450 msec (50 mg, any post-baseline visit): Two
- AEs related to ALS as assessed by the Investigator [3]: 85%
- subjects with prolonged QTcB [3]: 6 subjects
- subjects with serum chemistry abnormalities of potential clinical significance [3]: 4 subjects
- ALS-related TEAE: Affect liability (50 mg, through Week 28): 2 (4%) N (%)
- ALS-related TEAE: Arthralgia (50 mg, through Week 28): 1 (2%) N (%)
- ALS-related TEAE: Choking (50 mg, through Week 28): 2 (4%) N (%)
- ALS-related TEAE: Constipation (50 mg, through Week 28): 4 (8%) N (%)
- ALS-related TEAE: Contusion (50 mg, through Week 28): 1 (2%) N (%)
- ALS-related TEAE: Dehydration (50 mg, through Week 28): 0 N (%)
- ALS-related TEAE: Depression (50 mg, through Week 28): 1 (2%) N (%)
- ALS-related TEAE: Disease progression (50 mg, through Week 28): 2 (4%) N (%)
- ALS-related TEAE: Dysarthria (50 mg, through Week 28): 4 (8%) N (%)
- ALS-related TEAE: Dysphagia (50 mg, through Week 28): 5 (10%) N (%)
- ALS-related TEAE: Dysphasia (50 mg, through Week 28): 1 (2%) N (%)
- ALS-related TEAE: Dyspnoea (50 mg, through Week 28): 4 (8%) N (%)
- ALS-related TEAE: Dyspnoea exertional (50 mg, through Week 28): 0 N (%)
- ALS-related TEAE: Fall (50 mg, through Week 28): 10 (21%) N (%)
- ALS-related TEAE: Fatigue (50 mg, through Week 28): 3 (6%) N (%)
- ALS-related TEAE: Gastrointestinal Disorders (50 mg, through Week 28): 16 (33%) N (%)
- ALS-related TEAE: General Disorders and Administration Site Conditions (50 mg, through Week 28): 8 (17%) N (%)
- ALS-related TEAE: Increased upper airway secretion (50 mg, through Week 28): 1 (2%) N (%)
- ALS-related TEAE: Injury, Poisoning and Procedural Complications (50 mg, through Week 28): 10 (21%) N (%)
- ALS-related TEAE: Investigations (50 mg, through Week 28): 3 (6%) N (%)
- ALS-related TEAE: Metabolism and Nutrition Disorders (50 mg, through Week 28): 1 (2%) N (%)
- ALS-related TEAE: Muscle contractions involuntary (50 mg, through Week 28): 3 (6%) N (%)
- ALS-related TEAE: Muscle spasticity (50 mg, through Week 28): 5 (10%) N (%)
- ALS-related TEAE: Muscle twitching (50 mg, through Week 28): 1 (2%) N (%)
- ALS-related TEAE: Muscular weakness (50 mg, through Week 28): 12 (25%) N (%)
- ALS-related TEAE: Musculoskeletal and Connective Tissue Disorders (50 mg, through Week 28): 19 (40%) N (%)
- ALS-related TEAE: Musculoskeletal pain (50 mg, through Week 28): 1 (2%) N (%)
- ALS-related TEAE: Myalgia (50 mg, through Week 28): 2 (4%) N (%)
- ALS-related TEAE: Neck pain (50 mg, through Week 28): 1 (2%) N (%)
- ALS-related TEAE: Nervous System Disorders (50 mg, through Week 28): 11 (23%) N (%)
- ALS-related TEAE: Oedema peripheral (50 mg, through Week 28): 3 (6%) N (%)
- ALS-related TEAE: Pain in extremity (50 mg, through Week 28): 2 (4%) N (%)
- ALS-related TEAE: Psychiatric Disorders (50 mg, through Week 28): 2 (4%) N (%)
- ALS-related TEAE: Respiratory failure (50 mg, through Week 28): 4 (8%) N (%)
- ALS-related TEAE: Respiratory, Thoracic and Mediastinal Disorders (50 mg, through Week 28): 11 (23%) N (%)
- ALS-related TEAE: Salivary hypersecretion (50 mg, through Week 28): 8 (17%) N (%)
- ALS-related TEAE: Vital capacity decreased (50 mg, through Week 28): 2 (4%) N (%)
- ALS-related TEAE: Weight decreased (50 mg, through Week 28): 0 N (%)
- Number of TEAEs (50 mg, through Week 28): 277
- Number of serious TEAEs (50 mg, through Week 28): 15
- Number of serious treatment-related TEAE (50 mg, through Week 28): 1
- Number of severe TEAEs (50 mg, through Week 28): 17
- Number of treatment-related TEAEs (50 mg, through Week 28): 35
- TEAE: Anxiety (50 mg, through Week 28): 2 (4%) N (%)
- TEAE: Arthralgia (50 mg, through Week 28): 2 (4%) N (%)
- TEAE: Cardiac Disorders (50 mg, through Week 28): 2 (4%) N (%)
- TEAE: Constipation (50 mg, through Week 28): 8 (17%) N (%)
- TEAE: Cough (50 mg, through Week 28): 1 (2%) N (%)
- TEAE: Dehydration (50 mg, through Week 28): 1 (2%) N (%)
- TEAE: Depression (50 mg, through Week 28): 6 (13%) N (%)
- TEAE: Dizziness (50 mg, through Week 28): 0 N (%)
- TEAE: Dry mouth (50 mg, through Week 28): 2 N (%) and 1 (2%) N (%)
- TEAE: Dysarthria (50 mg, through Week 28): 4 (8%) N (%)
- TEAE: Dysphagia (50 mg, through Week 28): 5 (10%) N (%)
- TEAE: Dyspnoea (50 mg, through Week 28): 5 (10%) N (%)
- TEAE: Fall (50 mg, through Week 28): 11 (23%) N (%)
- TEAE: Fatigue (50 mg, through Week 28): 3 (6%) N (%)
- TEAE: Gastrointestinal Disorders (50 mg, through Week 28): 21 (44%) N (%)
- TEAE: General Disorders and Administration Site Conditions (50 mg, through Week 28): 14 (29%) N (%)
- TEAE: Headache (50 mg, through Week 28): 3 (6%) N (%)
- TEAE: Hyperglycaemia (50 mg, through Week 28): 0 N (%)
- TEAE: Infections and Infestations (50 mg, through Week 28): 21 (44%) N (%)
- TEAE: Injury, Poisoning and Procedural Complication (50 mg, through Week 28): 15 (31%) N (%)
- TEAE: Insomnia (50 mg, through Week 28): 0 N (%)
- TEAE: Metabolism and Nutrition Disorders (50 mg, through Week 28): 6 (13%) N (%)
- TEAE: Muscle contractions involuntary (50 mg, through Week 28): 3 (6%) N (%)
- TEAE: Muscle spasticity (50 mg, through Week 28): 5 (10%) N (%)
- TEAE: Musculoskeletal and Connective Tissue Disorders (50 mg, through Week 28): 22 (46%) N (%)
- TEAE: Musculoskeletal pain (50 mg, through Week 28): 2 (4%) N (%)
- TEAE: Nausea (50 mg, through Week 28): 4 (8%) N (%)
- TEAE: Neck pain (50 mg, through Week 28): 1 (2%) N (%)
- TEAE: Nervous System Disorders (50 mg, through Week 28): 16 (33%) N (%)
- TEAE: Pharyngolaryngeal pain (50 mg, through Week 28): 4 (8%) N (%)
- TEAE: Pneumonia (50 mg, through Week 28): 3 (6%) N (%)
- TEAE: Pruritus (50 mg, through Week 28): 3 (6%) N (%)
- TEAE: Psychiatric Disorders (50 mg, through Week 28): 9 (19%) N (%)
- TEAE: Rash (50 mg, through Week 28): 2 (4%) N (%)
- TEAE: Respiratory failure (50 mg, through Week 28): 4 (8%) N (%)
- TEAE: Respiratory, Thoracic and Mediastinal Disorders (50 mg, through Week 28): 17 (35%) N (%)
- TEAE: Salivary hypersecretion (50 mg, through Week 28): 8 (17%) N (%)
- TEAE: Sinusitis (50 mg, through Week 28): 2 (4%) N (%)
- TEAE: Skin and Subcutaneous Tissue Disorders (50 mg, through Week 28): 14 (29%) N (%)
- TEAE: Tachycardia (50 mg, through Week 28): 1 (2%) N (%)
- TEAE: Upper respiratory tract infection (50 mg, through Week 28): 5 (10%) N (%)
- TEAE: Urinary tract infection (50 mg, through Week 28): 3 (6%) N (%)
- TEAE: Vomiting (50 mg, through Week 28): 3 (6%) N (%)
- serious TEAE: Acute myocardial infarction (50 mg, through Week 28): 1 (2%) N (%)
- serious TEAE: Atrial fibrillation (50 mg, through Week 28): 0 N (%)
- serious TEAE: Blood and Lymphatic System Disorders (50 mg, through Week 28): 0 N (%)
- serious TEAE: Cardiac Disorders (50 mg, through Week 28): 1 (2%) N (%)
- serious TEAE: Cardiac failure congestive (50 mg, through Week 28): 1 (2%) N (%)
- serious TEAE: Cholecystitis acute (50 mg, through Week 28): 0 N (%)
- serious TEAE: Concussion (50 mg, through Week 28): 0 N (%)
- serious TEAE: Disease progression (50 mg, through Week 28): 1 (2%) N (%)
- serious TEAE: Dyspnoea (50 mg, through Week 28): 1 (2%) N (%)
- serious TEAE: Fall (50 mg, through Week 28): 0 N (%)
- serious TEAE: Gastrointestinal Disorders (50 mg, through Week 28): 1 (2%) N (%)
- serious TEAE: General Disorders and Administration Site Conditions (50 mg, through Week 28): 2 (4%) N (%)
- serious TEAE: Hepatobiliary Disorders (50 mg, through Week 28): 0 N (%)
- serious TEAE: Ileus (50 mg, through Week 28): 1 (2%) N (%)
- serious TEAE: Infections and Infestations (50 mg, through Week 28): 3 (6%) N (%)
- serious TEAE: Injury, Poisoning and Procedural Complications (50 mg, through Week 28): 0 N (%)
- serious TEAE: Neutropenia (50 mg, through Week 28): 0 N (%)
- serious TEAE: Pneumonia (50 mg, through Week 28): 1 (2%) N (%)
- serious TEAE: Pneumonia aspiration (50 mg, through Week 28): 0 N (%)
- serious TEAE: Pneumonia bacterial (50 mg, through Week 28): 1 (2%) N (%)
- serious TEAE: Pulmonary embolism (50 mg, through Week 28): 1 (2%) N (%)
- serious TEAE: Respiratory distress (50 mg, through Week 28): 1 (2%) N (%)
- serious TEAE: Respiratory failure (50 mg, through Week 28): 4 (8%) N (%)
- serious TEAE: Respiratory, Thoracic and Mediastinal Disorders (50 mg, through Week 28): 5 (10%) N (%)
- serious TEAE: Subdural haematoma (50 mg, through Week 28): 0 N (%)
- serious TEAE: Sudden death (50 mg, through Week 28): 1 (2%) N (%)
- serious TEAE: Viral infection (50 mg, through Week 28): 1 (2%) N (%)
- ≧1 TEAE with an outcome of death (50 mg, through Week 28): 7 N (%) and 7 (15%) N (%)
- ≧1 serious TEAE (including death) (50 mg, through Week 28): 11 N (%) and 11 (23%) N (%)
- ≧1 serious treatment-related TEAE (50 mg, through Week 28): 1 (2%) N (%)
- ≧1 severe TEAE (50 mg, through Week 28): 12 (25%) N (%) and 12 N (%)
- Number of TEAEs [4]: 333
- Number of serious TEAEs [4]: 18
- Number of serious treatment-related TEAEs [4]: 1
- Number of severe TEAEs [4]: 20
- Number of treatment-related TEAEs [4]: 39
- Subjects with a TEAE with action taken of study drug discontinued [4]: 2 N (%) and 2 (4%) N (%)
- subjects with TEAEs with an outcome of death (b230 count) [4]: 7 subjects
- ≧1 TEAE with an outcome of death [4]: 7 N (%) and 7 (15%) N (%)
- ≧1 serious TEAE (including death) [4]: 14 N (%) and 14 (29%) N (%)
